Data published in patent US10138250B2, “Salt of pyrrolo[2,3-D]pyrimidine compound and novel polymorph of salt” (Crystal Pharmatech Co., Ltd., priority 2014, dated 2018).
“Also recorded” adds a separate entry of the source. Where two headings read alike, the source gives them in different places.

What was measured:
[1] = Dynamic Vapor Sorption (DVS) hygroscopicity test with XRPD before and after; format: physicochemical; conditions: for Change after DVS: XRPD before and after DVS; for solid form change after hygroscopicity test (XRPD): XRPD before and after DVS 0-95% RH cycle
Method: Dynamic Vapor Sorption (DVS) was measured via a SMS (Surface Measurement Systems) DVS Intrinsic. Typical Parameters for DVS test are listed below.
Gas and flow rate: N2, 200 mL/min
RH range: 0% RH to 95% RH
About 10.0 mg of hemi-succinate Form A was analyzed by DVS. The solid form was tested by XRPD before and after DVS.
About hygroscopicity characterization description and definition of hygroscopicity (Chinese Pharmacopoeia 2010 edition appendix XIXJ Drug hygroscopic test guidelines, test at 25° C.+/−1° C., 80% Relative Humidity)
About 10 mg of mono-succinate Form I of the present invention and non-hydrate form in patent CN103201275A were analyzed by DVS. The solid was tested by XRPD before and after hygroscopicity test.
The solid was tested by XRPD before and after hygroscopicity test.

[2] = Storage stability of crystalline salt forms (XRPD, HPLC purity); format: physicochemical; conditions: 30 days; for Solid Form after storage: XRPD
Method: Two samples prepared by example 9, example 11 and example 13 were stored for 30 days under 25° C./60% RH and 40° C./75% RH.

[3] = Conversion of mono-succinate non-hydrate form to hemi-succinate Form A by stirring in solvents; format: physicochemical; conditions: cell continues 'Form A'
Method: About 10 mg of the non-hydrate form in patent CN103201275A as starting form was added in different solvents or mixed solvents (v/v), then stirred at 5˜50° C. for about 48 hours.

[4] = Conversion of mono-succinate non-hydrate form to Form I by stirring in solvents at different temperatures; format: physicochemical; conditions: cell continues 'Form I'
Method: About 10 mg of the non-hydrate form in patent CN103201275A as starting form was added in different solvents or mixed solvents (v/v), then stirred at 5-50° C. for about 48 hours. Finally, the starting form converted to Form I. Solvents and temperature used in this example is in the following in table 6.

[5] = data in patent CN103201275A, cited from earlier work

Structure (SMILES)	Water absorption at 25° C./95% RH ([1]; DVS)	Change after DVS [1]	HPLC Purity after storage ([2]; 25° C./60% RH)	Solid Form after storage ([2]; 25° C./60% RH)	HPLC Purity after storage ([2]; 40° C./75% RH)	Solid Form after storage ([2]; 40° C./75% RH)	other results
CN(C)C(=O)c1cc2cnc(Nc3ccc(N4CCNCC4)cn3)nc2n1C1CCCC1.O=C(O)CO [glycollate Form A]	1.2%	did not change; also recorded: No change	99.7%	No Change	99.6%	No Change	–
CN(C)C(=O)c1cc2cnc(Nc3ccc(N4CCNCC4)cn3)nc2n1C1CCCC1.CN(C)C(=O)c1cc2cnc(Nc3ccc(N4CCNCC4)cn3)nc2n1C1CCCC1.O=C(O)CCC(=O)O [hemi-succinate Form A]	–	–	–	–	–	–	weight gain at 80% RH ([1]; DVS, 25° C., 80% RH): 3.5%; hygroscopicity class ([1]; DVS, 80% RH): slightly hygroscopic (increase in mass is less than 2 percent and equal to or greater than 0.2 percent)
CN(C)C(=O)c1cc2cnc(Nc3ccc(N4CCNCC4)cn3)nc2n1C1CCCC1.O=C(O)CCC(=O)O [mono-succinate Form I]	–	–	–	–	–	–	water adsorbed at 25° C./90% RH ([1]; DVS, 25° C./90% RH): 1.7%; water adsorbed at 25° C./95% RH ([1]; DVS, listed as Form I): 4.0%; solid form change after hygroscopicity test (XRPD) ([1]; listed as Form I): did not change
CN(C)C(=O)c1cc2cnc(Nc3ccc(N4CCNCC4)cn3)nc2n1C1CCCC1.O=C(O)/C=C\C(=O)O [maleate Form A]	3.4%	did not change; also recorded: No change	99.3%	No Change	99.3%	No Change	–
CN(C)C(=O)c1cc2cnc(Nc3ccc(N4CCNCC4)cn3)nc2n1C1CCCC1.O=C(O)CCCCC(=O)O [adipate Form A]	0.7%	did not change; also recorded: No change	99.1%	No Change	98.9%	No Change	–
CN(C)C(=O)c1cc2cnc(Nc3ccc(N4CCNCC4)cn3)nc2n1C1CCCC1.O=C(O)CCC(=O)O	18.3%	–	–	–	–	–	water adsorbed at 25° C./95% RH ([1]; DVS): 18.3%; solid form change after hygroscopicity test (XRPD) [1]: changed; Change after DVS ([1]; listed as non-hydrate form in patent CN103201275A): changed; Final Form ([3]; Acetone:water = 20:1, stirred at 5˜50° C. about 48 hours): hemi-succinate; Final Form ([3]; Ethanol:water = 20:1, stirred at 5˜50° C. about 48 hours): hemi-succinate; Final Form ([3]; Ethyl acetate, stirred at 5˜50° C. about 48 hours): hemi-succinate; Final Form ([3]; Tetrahydrofuran:water = 20:1, stirred at 5˜50° C. about 48 hours): hemi-succinate; Final Form ([4]; 5° C., Ethanol:n-heptane = 4:1, about 48 hours): mono-succinate; Final Form ([4]; 50° C., Acetonitrile:water = 20:1, about 48 hours): mono-succinate; Final Form ([4]; 50° C., THF:Methanol = 20:1, about 48 hours): mono-succinate; Final Form ([4]; RT, Ethanol:n-heptane = 4:1, about 48 hours): mono-succinate; share of non-hydrate form converted to hydrate form ([5]; 25° C./80% RH): 0.52%; share of non-hydrate form converted to hydrate form ([5]; 25° C./90% RH): 7.35%; water adsorbed at 25° C./90% RH ([5]; 25° C./90% RH): 2.0%
